Assay results from US20090076152A1, “Novel Compounds Active as Muscarinic Receptor Antagonists” (priority 2007, published 2009).

biological target: T1, human muscarinic M3 receptor (Homo sapiens, UniProt P20309); experiment: hM3 β-Lac potency assay (NFAT-Betalactamase reporter in CHO-K1 cells); details: CHO cells recombinantly expressing human M3, NFAT β-lactamase reporter; inhibition of 80 nM carbamyl choline signal, 4 h; IC50 converted to Ki by Cheng-Prusoff; read-out: Cell based β-lactamase M3 Ki
T1 construct: expressed in transfected cells
Experimental: M3 potency was determined in CHO-K1 cells transfected with the NFAT-Betalactamase gene. CHO (Chinese Hamster Ovary) cells recombinantly expressing the human muscarinic M3 receptor were transfected with the NFAT_β-Lac_Zeo plasmid. Cells were grown in DMEM with Glutamax-1, supplemented with 25 mM HEPES(Life Technologies 32430-027), containing 10% FCS (Foetal Calf Serum; Sigma F-7524), […] Sodium pyruvate (Sigma S-8636), NEM (non-Essential Amino Acids; Invitrogen 11140-035) and 200 μg/ml Zeocin (Invitrogen R250-01).
Cells were harvested for assay when they reached 80-90% confluency using enzyme free cell Dissociation Solution (Life technologies 13151-014) incubated with the cells for 5 min at 37° C. in an atmosphere containing 5% CO2. Detached cells were collected in warmed growth media and centrifuged at 2000 rpm for 10 min, washed in PBS (Phosphate Buffered Saline; Life Technologies 14190-094) and centrifuged again as just described. The cells were re-suspended at 2×10^5 cells/ml in growth medium (composition as described above). 20 μl of this cell suspension was added to each well of a 384 well black clear bottomed plate (Greiner Bio One 781091-PFI). The assay buffer used was PBS supplemented with 0.05% Pluronic F-127 (Sigma 9003-11-6) and 2.5% DMSO. Muscarinic M3 receptor signalling was stimulated using 80 nM carbamyl choline (Aldrich N240-9) incubated with the cells for 4 h at 37° C./5% CO2 and monitored at the end of the incubation period using a Tecan SpectraFluor+ plate reader (λ—excitation 405 nm, emission 450 nm and 503 nm). M3 receptor antagonists under test were added to the assay at the beginning of the 4 h incubation period and compound activity measured as the concentration dependent inhibition of the carbamyl choline induced signal. Inhibition curves were plotted and IC50 values generated using a 4-parameter sigmoid fit and converted to Ki values using the Cheng-Prusoff correction and the KD value for carbamyl choline in the assay.

T1 sequence (P20309 whole entry): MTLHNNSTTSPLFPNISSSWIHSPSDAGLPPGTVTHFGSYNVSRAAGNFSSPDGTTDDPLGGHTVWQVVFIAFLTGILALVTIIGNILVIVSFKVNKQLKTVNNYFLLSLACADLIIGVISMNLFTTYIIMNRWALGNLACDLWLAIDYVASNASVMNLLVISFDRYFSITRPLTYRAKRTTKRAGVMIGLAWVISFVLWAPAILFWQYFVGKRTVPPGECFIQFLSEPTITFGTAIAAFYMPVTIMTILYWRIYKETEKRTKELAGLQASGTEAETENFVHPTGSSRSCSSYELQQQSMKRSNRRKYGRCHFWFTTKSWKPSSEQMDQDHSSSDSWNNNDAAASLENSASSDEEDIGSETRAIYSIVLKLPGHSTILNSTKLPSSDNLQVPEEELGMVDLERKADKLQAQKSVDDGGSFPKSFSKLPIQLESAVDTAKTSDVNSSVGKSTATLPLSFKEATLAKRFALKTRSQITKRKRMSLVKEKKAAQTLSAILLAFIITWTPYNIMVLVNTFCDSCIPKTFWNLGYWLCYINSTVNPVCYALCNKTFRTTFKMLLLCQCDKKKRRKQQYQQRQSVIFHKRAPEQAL

Row | SMILES | Ki
1 | CC(C)N(CC[C@H](c1ccccc1)c1cc(CCOc2ccc(CCNCc3ccc(O)c(Cl)c3)cc2)ccc1O)C(C)C [Example 12, 2-chloro-4-[({2-[4-(2-{3-[(1R)-3-(diisopropylamino)-1-phenylpropyl]-4-hydroxyphenyl}ethoxy)phenyl]ethyl}amino)methyl]phenol] | > 12.5 nM
2 | CC(C)N(CC[C@H](c1ccccc1)c1cc(CCOc2ccc(CCNC(=O)CC3CC3)cc2)ccc1O)C(C)C [Example 4] | 1.19 nM
3 | CC(C)N(CC[C@H](c1ccccc1)c1cc(CCOc2ccc(CCNCc3cc(O)cc(O)c3)cc2)ccc1O)C(C)C [Example 21, 5-{[2-(4-{2-[3-((1R)-3-Diisopropylamino-1-phenyl-propyl)-4-hydroxy-phenyl]-ethoxy}-phenyl)-ethylamino]-methyl}-benzene-1.3-diol] | > 5.75 nM
4 | CC(C)N(CC[C@H](c1ccccc1)c1cc(CCOc2ccc(CCNCc3cccc(Cl)c3)cc2)ccc1O)C(C)C [Example 10, 4-(2-{4-[2-(3-Chloro-benzylamino)-ethyl]-phenoxy}-ethyl)-2-((1R)-3-diisopropylamino-1-phenyl-propyl)-phenol] | 7.73 nM
5 | CC(C)N(CC[C@H](c1ccccc1)c1cc(CCOc2ccc(CCNCc3ccc(O)c(F)c3)cc2)ccc1O)C(C)C [Example 13, 2-[(1R)-3-(diisopropylamino)-1-phenylpropyl]-4-[2-(4-{2-[(3-fluoro-4-hydroxybenzyl)amino]ethyl}phenoxy)ethyl]phenol] | > 12.1 nM
6 | CC(C)N(CC[C@H](c1ccccc1)c1cc(CCOc2ccc(CCNCc3cccc(O)c3Cl)cc2)ccc1O)C(C)C [Example 17, 2-chloro-3-[({2-[4-(2-{3-[(1R)-3-(diisopropylamino)-1-phenylpropyl]-4-hydroxyphenyl}ethoxy)phenyl]ethyl}amino)methyl]phenol] | 1 nM
7 | CC(C)N(CC[C@H](c1ccccc1)c1cc(CCOc2ccc(CCNC(=O)C3CCCC3)cc2)ccc1O)C(C)C [Example 3, Cyclopentanecarboxylic acid [2-(4-{2-[3-((1R)-3-diisopropylamino-1-phenyl-propyl)-4-hydroxy-phenyl]-ethoxy}-phenyl)-ethyl]-amide] | 3.59 nM
8 | CC(C)N(CC[C@H](c1ccccc1)c1cc(CCOc2ccc(CCNCc3cccc(F)c3O)cc2)ccc1O)C(C)C [Example 14, 2-[(1R)-3-(diisopropylamino)-1-phenylpropyl]-4-[2-(4-{2-[(3-fluoro-2-hydroxybenzyl)amino]ethyl}phenoxy)ethyl]phenol] | 1.4 nM
9 | CC(C)N(CC[C@H](c1ccccc1)c1cc(CCOc2ccc(CCNCc3ccc(F)c(O)c3)cc2)ccc1O)C(C)C [Example 23, 2-[(1R)-3-(diisopropylamino)-1-phenylpropyl]-4-[2-(4-{2-[(4-fluoro-3-hydroxybenzyl)amino]ethyl}phenoxy)ethyl]phenol] | > 6.66 nM
10 | CC(C)N(CC[C@H](c1ccccc1)c1cc(CCOc2ccc(CCNC(=O)c3ccc(O)c(F)c3)cc2)ccc1O)C(C)C [Example 5, N-[2-(4-{2-[3-((1R)-3-Diisopropylamino-1-phenyl-propyl)-4-hydroxy-phenyl]-ethoxy}-phenyl)-ethyl]-3-fluoro-4-hydroxy-benzamide] | 5.36 nM
11 | CC(C)N(CC[C@H](c1ccccc1)c1cc(CCOc2ccc(CCNC(=O)[C@]34C[C@H]5C[C@H](C[C@H](C5)C3)C4)cc2)ccc1O)C(C)C [Example 6, (3S,5S,7S)-N-{2-[4-(2-{3-[(1R)-3-(diisopropylamino)-1-phenylpropyl]-4-hydroxyphenyl}ethoxy)phenyl]ethyl}adamantane-1-carboxamide] | 4.99 nM
12 | CC(C)N(CC[C@H](c1ccccc1)c1cc(CCOc2ccc(CCN(C)C)cc2)ccc1O)C(C)C [Example 8, 2-((1R)-3-Diisopropylamino-1-phenyl-propyl)-4-{2-[4-(2-dimethylamino-ethyl)-phenoxy]-ethyl}-phenol] | 1.4 nM
